This passage reports viability, cytotoxicity and minimal effective concentration results from EP1057484A1, “CELL DEATH INHIBITORS” (priority 1998, dated 1999).

Read-outs that look alike come from different tables or passages of the source. A value given as a limit tells only on which side of the number the result lay.

The subject of assay [1] is 4B2 cells. Put plainly: Test Example 9: SNP-induced apoptosis of 4B2 granulosa cell line. It counts as cell-based. Conditions: Mus musculus; 10 µM added prior to SNP (0.5 mM); observation after 24 hours; read-out: cells alive. The protocol:
Mouse granulosa cells were transfected with SV40 T antigen and cDNA of steroidogenic factor-1 (SF-1/Ad4BP) to establish a cell line, named 4B2. The cell secretes progesterone in response to protein kinase-A. The 4B2 cells were cultured in 48-well culture plates until subconfluency in DMEM containing 10% fetal bovine serum in a CO2 incubator according to a conventional manner. After the medium was switched to DMEM containing 2% fetal bovine serum, SNP (0.5 mM) was added thereto. […] Then, prior to the addition of SNP, Test Compound 13, 14, 17, 20, 24 or 25 (10 µM each) was added to the present medium and observations on cells were made after 24 hours.

The subject of assay [2] is erythrocytes. Put plainly: Test Example 13: hydrogen peroxide-induced death of erythrocytes. It counts as cell-based. The note with it: Homo sapiens, Erythrocyte, observation after 24 hours, read-out: ratios of dead erythrocytes (dark ghost cells); for cytotoxicity at 20 µM: 20 µM added prior to hydrogen peroxide (300 µM). The protocol:
After human blood (2 mL) was centrifuged at 1000 rpm for 5 min, the resulting cell pellets containing erythrocytes were washed three times with a DMEM medium and the cells were resuspended in the same medium (15 mL) (about 5 × 10^8 cells/mL). Ten µL of this suspension was added with 10% FCS/DMEM (10 mL), and the cells were plated in 48 well plates (500 µL/well). When hydrogen peroxide (300 µM) was added to the erythrocyte culture solution and the cells were cultured for 24 hours, all erythrocytes were dead on observations under a light microscopy (all erythrocytes were subjected to shape changes from a bright, round and concave shape into a dark hemolytic ghost through multiple shape changes). On the other hand, Test Compound 14 (30 µM), Test Compound 18 (10 µM), Test Compound 19 (20 µM) or Test Compound 20 (20 µM) was added prior to the hydrogen peroxide addition.

For assay [3], the system named is undifferentiated POGC. Kind of assay: Test Example 8: bilirubin-induced cell death of undifferentiated POGC. Type of assay: cell-based, porcine. Conditions: Sus scrofa, 96 h; 10 µM added prior to bilirubin (30 µg/mL); observation after 4 days; read-out: survival of the cells.
For assay [4], the system named is Primary cultured fibroblasts. Put plainly: Test Example 14: SNP-induced apoptosis of primary cultured fibroblasts. The note with it: Mus musculus, Fibroblast; 5 µM added prior to SNP (0.5 mM); observation after 48 hours; read-out: cells alive. It counts as cell-based, mice. The protocol:
Primary cultured fibroblasts were prepared from mice according to a known method (Kinou Saibou no Bunri to Baiyou (Isolation and Culture of Functional Cells), Maruzen, 1987, p. 59). Namely, after removing skin hairs from mice with shaving foam followed by disinfection with a chlorhexidine gluconate solution, tiny skin fragments were isolated. […] After migration of fibroblasts became obvious, the slide glasses and the residual skin fragments were removed, and the culture was continued. […] In the cases that Test Compound 14 (5 µM) or Test Compound 18 (2.5 µM) was added to the present culture system prior to the SNP addition, apoptosis in both cultures was inhibited and more than 95% of cells were alive on an observation after 48 hours.

In assay [5] the test system is cerebellar granule cells. Kind of assay: Test Example 11: SNP-induced death of cerebellar granule cells. It counts as cell-based, rats. Conditions: Rattus norvegicus; 10 µM added prior to SNP (1.5 µM); observation after 12 hours; read-out: cells alive.
Assay [6] concerns monolayer cells derived from the mouse kidneys. Kind of assay: Test Example 15: SNP-induced apoptosis of monolayer cells derived from kidneys. It counts as cell-based, mice. The note with it: 5 µM added prior to SNP (0.5 mM), observation after 48 hours, read-out: cells alive. The protocol: Kidneys isolated from mice were dissected into minute pieces in a serum-free DMEM, which were dispersed with trypsin/EDTA treatment. After leaving it for a while, the supernatant was discarded, and the pellet was transferred to a culture plate and cultured in DMEM containing 10% fetal bovine serum in a CO2 incubator according to a conventional manner. After tissues were adhered onto a culture plate and subsequently cell colonies got formed, the tissues were removed and the colonies were subcultured in the same medium. The resulting monolayer cells derived from the mouse kidneys were morphologically different from fibroblasts. […] Then, Test Compound 14 (5 µM) or Test Compound 18 (2.5 µM) was added prior to the SNP addition and the cells were observed.

Assay [7] concerns Porcine ovarian granulosa cells (POGC). Kind of assay: Test Example 1: inhibition of SNP-induced apoptosis of porcine ovarian granulosa cells. Type of assay: cell-based. Conditions: Sus scrofa, for complete inhibition of apoptosis, SNP 0.5 mM, read-out: Minimum effective concentration. The source says: Porcine ovarian granulosa cells (POGC) were isolated from porcine ovaries and cultured following to a known method (Endocrinology, Vol. 136, p. 3470, 1995). Namely, porcine ovaries were rinsed with PBS buffer, and POGC were collected by aspiration from antral follicles with a syringe. Cell fraction was recovered as a precipitate by centrifugation of the suspension. The operation of suspending the cell fraction into PBS buffer and subjecting the resulting suspension to centrifugation was repeated three times to wash the cells. The POGC obtained as a precipitate were suspended again into a culture medium (DMEM containing 10% fetal bovine serum) and cell clumps were disrupted by pipetting. The cell suspension was passed through a mesh to remove contaminating tissue fragments, and then pipetted in 24-well plates for cell culture. The cell suspension was cultured for 2 days in a CO2 incubator according to a conventional procedure (37°C, 5% CO2). Then, the medium was refreshed to remove floating cells and the culture was continued for further 2 to 3 days until the cells reached subconfluency (0.7 to 2 × 10^5 cell/well). After the attaching cells were washed with serum-free medium, they were cultured in a serum-free DMEM (containing 5 µg/mL of transferrin, and 40 ng/mL of hydrocortisone, 4 mg/mL of bovine serum albumin (BSA), 100 nM androstendione).
The cell death was also confirmed by MTT assay. […] The results are shown in Table 1 where a minimum effective concentration of each compound for complete inhibition of apoptosis is described.

In assay [8] the test system is Porcine Ovarian Granulosa Cells. Put plainly: Test Example 7: inhibition of SNP-induced apoptosis of undifferentiated POGC. Type of assay: cell-based. Conditions: Sus scrofa, for complete inhibition of apoptosis, SNP 0.5 mM, read-out: Minimum effective concentration.
Assay [9] has as its system cerebellar granule cells. Kind of assay: Test Example 10: hydrogen peroxide-induced death of cerebellar granule cells. Conditions: Rattus norvegicus, read-out: cells alive. Type of assay: cell-based, rats. The protocol: (§1) According to a known method (A Dissection and Tissue Culture Manual of the Nervous System, p. 211, 1989, Alan R, Liss, Inc.), cerebellar granule cells were isolated from the cerebellum of 7 days old rats and cultured. Namely, after conducting isolation procedures described in the above literature, the resulting cells were resuspended in DMEM containing 10% fetal bovine serum, 25 mM KCl and 2 mM glutamine, and seeded in poly-lysine coated plates. After the cells were cultured in a CO2 incubator for 48 hours according to a conventional method, cytosine-1-β-D(+)-arabinofuranoside (Ara-C) (10 µM) was added thereto, and the cell was continued to culture. The following experiments were conducted with the cells of 7 to 14 days old from the start day of the culture, the cells having completed neurite extension sufficiently. […] Furthermore, experiments were conducted by increasing a concentration of hydrogen peroxide to 300 µM. In the cases that Test Compound 18 (10 µM), Test Compound 19 (10 µM), or Test Compound 20 (10 µM) were added, about 90%, 90%, and 70% of the cells were alive, respectively, on observations after 16 hours.

Assay [10] has as its system cerebellar granule cells. Put plainly: Test Example 12: bilirubin-induced death of cerebellar granule cells. Type of assay: cell-based, rats. Conditions: Rattus norvegicus; 10 µM added prior to bilirubin (100 µg/ml); observation after 18 hours; read-out: cells alive. The protocol: as §1
Neonatal jaundice is known to induce severe brain damages by way of abnormally high concentration of bilirubin in the body. […]

[11] abbreviates: judged at 18 hours after SNP treatment.
The mark [12] stands for this setting: 10 µM added prior to hydrogen peroxide (10 µM), observation after 12 hours.
Where [13] appears, read: 10 µM, hydrogen peroxide 300 µM, observation after 16 hours.

With `CN1C(=O)C(c2c[nH]c3ccccc23)=C(c2c[nH]c3ccccc23)C1=O`, the viability at 10 µM in assay [1] was above 95%; in assay [3] it was 50%; in [5], above 95%. The cytotoxicity at 30 µM in [2] (30 µM added prior to hydrogen peroxide (300 µM)) was 20%. The viability at 5 µM in assay [4] and in [6] was above 95% in each case.
`CN1C(=O)C(Br)=C(c2c[nH]c3ccccc23)C1=O` [Compound 1, 2-bromo-3-(1H-indol-3-yl)-N-methylmaleimide]: the minimal effective concentration in assay [7] (setting [11]) amounted to 15 µM.
Turning to `CN1C(=O)C(Br)=C(c2cn(C(=O)OC(C)(C)C)c3ccccc23)C1=O` [Compound 2], in assay [7] (cells observed after 48 hours), the minimal effective concentration came to 10 µM.
On the same count and under the same terms, the value for `Cc1ccc2[nH]cc(C3=C(Br)C(=O)N(C)C3=O)c2c1` [Compound 3] was 3 µM; that for `Cc1cccc2c(C3=C(Br)C(=O)N(C)C3=O)c[nH]c12` [Compound 4] was 10 µM; that for `CN1C(=O)C(Br)=C(c2c[nH]c3ccc(Cl)cc23)C1=O` [Compound 5] was 15 µM.
On the same count and under the same terms, next, `Cc1ccc2c(c1)c(C1=C(Br)C(=O)N(C)C1=O)cn2C(=O)OC(C)(C)C` [Compound 6]: 3 µM.
The same measure, in the same setting: the value for `Cc1cccc2c(C3=C(Br)C(=O)N(C)C3=O)cn(C(=O)OC(C)(C)C)c12` [Compound 7] was 7 µM.
For `CN1C(=O)C(Br)=C(c2cn(C(=O)OC(C)(C)C)c3ccc(Cl)cc23)C1=O` [Compound 8], the minimal effective concentration in assay [7] (cells observed after 48 hours) came out at 7 µM.
For `CN1C(=O)C(Br)=C(c2cn(C)c3ccccc23)C1=O` [Compound 9, 2-bromo-3-(1-methyl-1H-indol-3-yl)-N-methylmaleimide], the minimal effective concentration in assay [7] (setting [11]) turned out to be 15 µM.
On to `CCCCCCCn1cc(C2=C(Br)C(=O)N(C)C2=O)c2ccccc21` [Compound 10], for which the minimal effective concentration in assay [7] (judged at 35 hours after SNP treatment) was 3 µM.
Regarding `O=C1NC(=O)C(c2c[nH]c3ccccc23)=C1c1c[nH]c2ccccc12` [Compound 13], the minimal effective concentration in [8] (cells observed after 48 hours) was 5 µM. Besides, the viability at 10 µM in assay [1] is above 95%.
`NCCCn1cc(C2=C(c3c[nH]c4ccccc34)C(=O)NC2=O)c2ccccc21` [Compound 17]: in [8] (judged at 30 hours after SNP treatment), the minimal effective concentration turned out to be 3 µM. Also, the viability at 10 µM in [1] was above 95%.
With `CN1C(=O)C(c2c[nH]c3ccccc23)=C(c2cn(CCCN)c3ccccc23)C1=O` [Compound 19], the viability at 10 µM is above 95% in assay [9] (setting [12]), around 90% in assay [9] (setting [13]) and above 95% in [5]. The minimal effective concentration in assay [8] (cells observed after 48 hours) came to 0.7 µM. In addition, the cytotoxicity at 20 µM in assay [2] came out at 10%.
Regarding `CC(=O)NCCCn1cc(C2=C(c3c[nH]c4ccccc34)C(=O)N(C)C2=O)c2ccccc21` [Compound 20], the viability at 10 µM is around 70% in [9] (setting [13]), above 95% in assay [1], around 80% in [10] and above 95% in assay [5]. The minimal effective concentration in assay [8] (cells observed after 48 hours) came out at 7 µM. The cytotoxicity at 20 µM in assay [2] was determined as 10%.
As for `CN1C(=O)C(c2c[nH]c3ccccc23)=C(c2c[nH]c3ccc(Cl)cc23)C1=O` [Compound 24], in [8] (cells observed after 48 hours), the minimal effective concentration stood at 3 µM. The viability at 10 µM in assay [1] is above 95%.
Turning to `Cc1cccc2c(C3=C(c4c[nH]c5c(C)cccc45)C(=O)N(C)C3=O)c[nH]c12` [Compound 25], the viability at 10 µM is above 95% in [9] (setting [12]), above 95% in assay [1], 95% in assay [3] and above 95% in assay [5]. The minimal effective concentration in assay [8] (cells observed after 48 hours) stood at 0.3 µM.
As to `COc1cccc2[nH]cc(C3=C(c4c[nH]c5cccc(OC)c45)C(=O)N(C)C3=O)c12` [Compound 45], in [8] (setting [11]), the minimal effective concentration stood at 3 µM.
Still for that read-out and setting: next, `Cc1[nH]c2ccccc2c1C1=C(c2c[nH]c3ccccc23)C(=O)N(C)C1=O` [Compound 46]: 10 µM.
Same read-out and setting: next, `Cc1[nH]c2ccccc2c1C1=C(c2c(C)[nH]c3ccccc23)C(=O)N(C)C1=O` [Compound 47]: 10 µM; `O=C1C(c2c[nH]c3ccccc23)=C(c2c[nH]c3ccccc23)C(=O)N1c1ccccc1` [Compound 48]: 1 µM.
Still for that read-out and setting: next, `O=C1C(c2c[nH]c3ccccc23)=C(c2c[nH]c3ccccc23)C(=O)N1Cc1ccccc1` [Compound 49]: 1 µM.
